According to PubChem BioAssay AID1996:
Converted amounts (≈) assume the structure as drawn.

conditions: buffer; pH 7.4; 200.0 µM

SMILES | solubility kinetic
Cc1ccccc1NS(=O)(=O)c1csc(C(N)=O)c1 | > 0.0445 mg/mL
CCN(Cc1ccccc1)C(=O)Cc1c[nH]c2ccccc12 | 0.0339 mg/mL (≈ 116 µM)
FC(F)(F)c1nc(=S)c2ccccc2[nH]1 | 0.0345 mg/mL (≈ 150 µM)
Cn1cccc1C1CCCN1CC(=O)Nc1ccc(C#N)c(Cl)c1 (stereo not given) | 0.0123 mg/mL (≈ 35.9 µM)
CC(C)c1ccc(S(=O)(=O)NC2CCCC2)cc1 | > 0.0401 mg/mL
COc1ccc(OCCN2CCOCC2)cc1 | 0.0309 mg/mL (≈ 130 µM)
Cc1cc(NC(=O)CN2C(=O)c3ccccc3S2(=O)=O)no1 | 0.0327 mg/mL (≈ 102 µM)
O=C(c1ccccc1[N+](=O)[O-])N1CCCC(C(=O)N2CCCCCC2)C1 (stereo not given) | 0.053 mg/mL (≈ 147 µM)
COc1cc(OC)c(N(C)S(=O)(=O)c2cccc(C(=O)Nc3nccs3)c2)cc1Cl | 0.0042 mg/mL (≈ 8.98 µM)
CN(C)/C=N/S(=O)(=O)c1ccc(Cl)c(Cl)c1 | > 0.0422 mg/mL
CC(=O)Nc1ccc(NC(=O)Nc2cccc3ccccc23)cc1 | 0.0011 mg/mL (≈ 3.44 µM)
O=C(Nc1ccccc1)c1cc([N+](=O)[O-])ccc1N1CCCCC1 | 0.0017 mg/mL (≈ 5.22 µM)
COc1ccccc1OCC(=O)Nc1ccc(S(=O)(=O)N(C)c2ccccc2)cc1 | 0.0024 mg/mL (≈ 5.63 µM)
CCc1nc(C(N)=O)c2[nH]c(=O)n(-c3ccc(OC)cc3OC)c2n1 | > 0.0515 mg/mL
COC(=O)Cc1ccc(NC(=S)NCCO)cc1 | 0.0393 mg/mL (≈ 146 µM)
CCCOc1ccc(-c2nc(N3CCN(C)CC3)c3ccccc3n2)cc1 | 0.0145 mg/mL (≈ 40 µM)
Cc1nsc(N)c1C(=O)O | > 0.0237 mg/mL
Cc1cnc(NC(=O)c2ccc(Cl)nc2)s1 | 0.0066 mg/mL (≈ 26 µM)
O=C(Cc1cccs1)NCCc1ccc(F)cc1 | > 0.0395 mg/mL
Cc1ccc2c(C)c(C(=O)N(C)Cc3nccn3C)oc2c1C | > 0.0467 mg/mL
O=C(c1ccccc1)c1ccc(OCC(O)CN2CCCC2)cc1 (stereo not given) | > 0.0488 mg/mL
CC(C)NC(=O)/C=C/C(=O)O | 0.0223 mg/mL (≈ 142 µM)

SMILES | solubility kinetic
COc1ccc(C(=O)CCC(=O)Nc2cccc(Cl)c2)cc1 | 0.0034 mg/mL (≈ 10.7 µM)
COc1c(N2CCN[C@H](C)C2)c(F)cc2c(=O)c(C(=O)O)cn(C3CC3)c12 | 0.0386 mg/mL (≈ 103 µM)
CCCC(=O)Nc1cc(C)cn(Cc2c(F)cccc2Cl)c1=O | 0.0413 mg/mL (≈ 123 µM)
Cl.O=C(OCCN1CCCCC1)c1cccc(F)c1 | > 0.0432 mg/mL
Cc1ccccc1S(=O)(=O)/N=C(/Nc1nc2ccccc2s1)c1ccccc1 | 0.0011 mg/mL (≈ 2.7 µM)
CCCC1C(=O)Nc2ccccc2N1C(=O)c1cccc(C)c1 (stereo not given) | > 0.0463 mg/mL
CS(=O)(=O)N(CC(=O)NCCSCc1cccc(Cl)c1)c1ccc(F)cc1 | 0.038 mg/mL (≈ 88.2 µM)
N#CC(C#N)=C1NC(N)=C(C#N)C(c2ccccc2)=C1C#N | > 0.0426 mg/mL
CC1CC(C)CN(C(=O)c2ccc3c(c2)OCCO3)C1 (stereo not given) | > 0.0413 mg/mL
O[C@@H]1CN(Cc2ccccc2Cl)CC[C@H]1N1CCOCC1 | 0.0399 mg/mL (≈ 128 µM)
O=C1/C(=C\c2cccnc2)N2CCC1CC2 | > 0.0321 mg/mL
Cc1ccc(Cl)cc1NC(=O)CN1CCOCC1 | > 0.0403 mg/mL
CC1(c2ccc(OC(F)F)cc2)NC(=O)N(CC(=O)NC2CCCC2)C1=O (stereo not given) | > 0.0572 mg/mL
O=C(NC1CCC(O)CC1)c1cc(Cl)c2c(c1)OCCO2 (stereo not given) | 0.0356 mg/mL (≈ 114 µM)
CC(C)NC(=O)C1=NN(c2ccccc2)C(=O)CC1 | > 0.0389 mg/mL
O=C1c2ccccc2C(=O)N1CCc1ccccc1 | 0.0078 mg/mL (≈ 31 µM)
CN(C(=O)c1ccco1)c1nc(-c2ccc(Cl)cc2)cs1 | 0.0009 mg/mL (≈ 2.82 µM)
NS(=O)(=O)c1ccc(F)c(C(=O)O)c1 | > 0.0329 mg/mL
COc1cccc(C2CC(=O)Nc3cc(OC)c(OC)cc32)c1 (stereo not given) | 0.0203 mg/mL (≈ 64.8 µM)
COc1ccc(C(=O)CCC(=O)Nc2cccnc2)cc1OC | > 0.0472 mg/mL
Cc1cc(C)cc(OCc2ccc(C(=O)NC3CCOC3=O)o2)c1 (stereo not given) | > 0.0494 mg/mL
Cc1cccn2c(NC(=O)c3ccccc3F)c(-c3ccccc3)nc12 | 0.0026 mg/mL (≈ 7.53 µM)

SMILES | solubility kinetic
CCOC(=O)C(=CNc1nc2ccc(C(=O)OCC)cc2s1)C(=O)OCC | < 0.0004 mg/mL
O=C(NCC1CCCCC1)c1ccc(F)cc1Cl | 0.0204 mg/mL (≈ 75.6 µM)
O=C(O)CN1C(=O)NC2(CCOc3ccccc32)C1=O (stereo not given) | > 0.0414 mg/mL
N/C(=N\OC(=O)c1ccccc1F)c1ccc([N+](=O)[O-])cc1 | 0.0023 mg/mL (≈ 7.58 µM)
O=C(Nc1ccc(CN2CCOCC2)cc1)c1ccc(Cl)cc1Cl | 0.0199 mg/mL (≈ 54.5 µM)
O=C(NCCNc1ccc([N+](=O)[O-])cc1)c1ccccc1F | 0.0038 mg/mL (≈ 12.5 µM)
C=CCNC(=O)CN1CCC(c2nc3cc(C)c(C)cc3[nH]2)CC1 | > 0.049 mg/mL
Cn1c(N2CCCC2)nc2c1c(=O)[nH]c(=O)n2C | > 0.0374 mg/mL
CC(=O)C1=C(O)C(=O)N(c2cccnc2)C1c1cccc([N+](=O)[O-])c1 (stereo not given) | > 0.0509 mg/mL
CC(Sc1ccccc1)C(=O)NCCc1ccccc1 (stereo not given) | > 0.0428 mg/mL
Cc1cc(C(=O)O)ccc1NCc1cccnc1 | 0.036 mg/mL (≈ 149 µM)
C=C(C)COc1ccc(C2NC(=O)c3ccccc3O2)cc1OCC (stereo not given) | 0.0019 mg/mL (≈ 5.6 µM)
N#Cc1ccc(-c2ccc(OCC3CNC(=O)O3)cc2)cc1 (stereo not given) | 0.0113 mg/mL (≈ 38.4 µM)
Cc1ccc(NC(=O)CCn2cnc3ccccc3c2=O)c(C)c1 | 0.0137 mg/mL (≈ 42.6 µM)
CCN(CC(=O)Nc1c(F)cccc1F)C(=O)CSc1ccc(F)cc1 | > 0.0574 mg/mL
Clc1ccc(CSC(Cn2ccnc2)c2ccc(Cl)cc2Cl)cc1.O=[N+]([O-])O (stereo not given) | 0.0487 mg/mL
O=C(Nc1ccccc1C(=O)Nc1ccncc1)c1ccc([N+](=O)[O-])cc1 | 0.0112 mg/mL (≈ 30.9 µM)
Cc1cc(C)c2nc(C)cc(Nc3ccc(C(=O)N(C)C)cc3)c2c1 | 0.0056 mg/mL (≈ 16.8 µM)
COc1cccc(C(=O)OCC(=O)NCCCc2ccccc2)c1 | 0.0121 mg/mL (≈ 37 µM)
COCCn1c(/C=C/c2ccccc2)nc2ccccc21 | > 0.0418 mg/mL
Cc1cccc(OCC(=O)N2CCc3ccccc3C2)c1 | 0.0346 mg/mL (≈ 123 µM)
O=S(=O)(Nc1ncnc2sccc12)c1cccc(F)c1 | > 0.0464 mg/mL

SMILES | solubility kinetic
NCCc1cnc[nH]1 | 0.0141 mg/mL (≈ 127 µM)
COC(=O)c1cc(Nc2cc(C)c3ccc(O)cc3n2)cc(C(=O)OC)c1 | < 0.0004 mg/mL
CC(=O)c1c(-c2ccccc2)c2cc(Cl)ccc2n(C)c1=O | 0.0388 mg/mL (≈ 124 µM)
COc1ccc(NC(=O)C2CCCN(c3cnccn3)C2)cc1 (stereo not given) | > 0.0469 mg/mL
Cc1nnc(Nc2ccccc2F)s1 | > 0.0314 mg/mL
Clc1ccc(CN2CCSCC2)c(Cl)c1 | 0.0009 mg/mL (≈ 3.43 µM)
CCOC(=O)/C(C#N)=C\c1cccnc1 | > 0.0303 mg/mL
O=C(Nc1nccs1)c1ccc(N2C(=O)[C@@H]3[C@H](C2=O)[C@H]2C=C[C@@H]3C2)cc1 | 0.0061 mg/mL (≈ 16.7 µM)
O=C(Cc1ccc([N+](=O)[O-])cc1)Nc1ccon1 | 0.0183 mg/mL (≈ 74 µM)
N/C(=N\OC(=O)c1ccc([N+](=O)[O-])cc1)c1ccc(Br)cc1 | < 0.0003 mg/mL
CC(=NCC1CCCO1)c1c(O)n(-c2ccccc2C)c(=O)[nH]c1=O (stereo not given) | > 0.0515 mg/mL
Fc1ccccc1CSCc1nc2ccccc2[nH]1 | 0.0366 mg/mL (≈ 134 µM)
CCOC(=O)C(C(=O)N(C)Cc1ccccc1)C1CCCCC1 (stereo not given) | 0.0418 mg/mL (≈ 132 µM)
COc1ccc(OC)c(NC(=O)CSc2nc(O)cc(=O)n2CC(C)C)c1 | > 0.059 mg/mL
Cc1cc(C)cc(OCC(=O)O/N=C(\N)c2ccccc2Cl)c1 | 0.0133 mg/mL (≈ 40 µM)
Cc1cccc(C)c1OCCCCN1CCNCC1.O=C(O)C(=O)O | 0.046 mg/mL
CCN(CC)CCC(C)OC(=O)c1ccc(O)cc1O.Cl (stereo not given) | > 0.0477 mg/mL
COc1cccc(NC(=O)CN2C(=O)NC(C)(CC(C)C)C2=O)c1 (stereo not given) | > 0.05 mg/mL
Cc1c(C(=O)N2CCCc3ccccc32)oc2ccccc12 | 0.0057 mg/mL (≈ 19.6 µM)
